{
  "source": "patent EP0092830A2",
  "about": "“Cephalosporin derivatives, process for their preparation, pharmaceutical compositions containing them and their application” (CIBA-GEIGY AG, priority 1982, dated 1983)",
  "key": {"Escherichia coli 205": {"system": "Escherichia coli 205", "assay": "chemotherapeutic efficacy in vivo against systemic infection in mice (method of Zak et al.)", "details": "systemic infection in female SPF, MF2 mice", "description": "(§1) B. Die chemotherapeutische Wirksamkeit in vivo gegen systemische Infektionen in weiblichen SPF, MF2 Mäusen wurde nach der Methode von Zak, 0. et al., 1979, Drugs Exptl. Clin. Res. 5, 45-59, ermittelt. Die gefundenen EDS50-Werte in Milligramm Substanz pro Kilogramm Maus (mg/kg) für eine Anzahl von Mikroorganismen werden für die oral (p.o.) oder subcutan (s.c.) applizierten, Testverbindungen in der Tabelle 2 angegeben."}, "[1]": {"system": "Staphylococcus aureus 10 B", "assay": "chemotherapeutic efficacy in vivo against systemic infection in mice (method of Zak et al.)", "details": "systemic infection in female SPF, MF2 mice; for ED50: Staphylococcus aureus, 10B; for ED50 Staphylococcus aureus 10 B: s.c.", "description": "as §1"}, "[2]": {"details": "Escherichia coli, 205, po, p.o."}, "[3]": {"details": "Escherichia coli, 205, sc, s.c."}},
  "data": [
    {"smiles": "C=CC(=O)NCCS(=O)(=O)NC(C(=O)N[C@@H]1C(=O)N2C(C(=O)O)=C(CSc3nnnn3C)CS[C@H]12)c1csc(N)n1", "note": "(stereo partly drawn) [Testverbindung 41]", "values": [
      {"measurement": "ED50", "setting": "Escherichia coli 205; [2]", "result": 10, "unit": "mg/kg"},
      {"measurement": "ED50", "setting": "Escherichia coli 205; [3]", "result": 2, "unit": "mg/kg"},
      {"measurement": "ED50", "setting": "[1]; sc", "result": 24, "unit": "mg/kg"}
    ]},
    {"smiles": "CS(=O)(=O)NC(C(=O)N[C@@H]1C(=O)N2C(C(=O)O)=C(CSc3nnnn3CS(=O)(=O)O)CS[C@H]12)c1csc(N)n1", "note": "(stereo partly drawn) [Testverbindung 44]", "values": [
      {"measurement": "ED50", "setting": "Escherichia coli 205; [3]", "result": "< 1", "unit": "mg/kg"},
      {"measurement": "ED50", "setting": "[1]; sc", "result": 85, "unit": "mg/kg"}
    ]},
    {"smiles": "NCCS(=O)(=O)NC(C(=O)N[C@@H]1C(=O)N2C(C(=O)[O-])=C(CSc3nnnn3CS(=O)(=O)O)CS[C@H]12)c1csc(N)n1.[Na+]", "note": "(stereo partly drawn) [Testverbindung 6, 3-(1-Sulfomethyl-1H-tetrazol-5-ylthiomethyl)-7ß-[(2R,S)-2-(2-aminoäthansulfonylamino)-2-(2-aminothiazol-4-yl)-acetamido]-3-cephem-4-carbonsäurematriumsalz]", "values": [
      {"measurement": "ED50 Escherichia coli 205", "setting": "Escherichia coli 205; p.o.", "result": 10, "unit": "mg/kg"},
      {"measurement": "ED50 Escherichia coli 205", "setting": "Escherichia coli 205; s.c.", "result": "6,0 mg/kg"},
      {"measurement": "ED50 Staphylococcus aureus 10 B", "setting": "[1]", "result": ">30", "unit": "mg/kg"}
    ]},
    {"smiles": "CS(=O)(=O)N[C@H](C(=O)N[C@@H]1C(=O)N2C(C(=O)O)=C(COC(N)=O)CS[C@H]12)c1csc(N)n1", "note": "[Testverbindung 40]", "values": [
      {"measurement": "ED50", "setting": "Escherichia coli 205; [2]", "result": 0.9, "unit": "mg/kg"},
      {"measurement": "ED50", "setting": "Escherichia coli 205; [3]", "result": 0.1, "unit": "mg/kg"},
      {"measurement": "ED50", "setting": "[1]; sc", "result": 3, "unit": "mg/kg"}
    ]},
    {"smiles": "CN(C)CCn1nnnc1SCC1=C(C(=O)O)N2C(=O)[C@@H](NC(=O)C(NS(=O)(=O)CCN)c3csc(N)n3)[C@H]2SC1", "note": "(stereo partly drawn) [Beispiel 20, 3-[1-(2-Dimethylaminoäthyl)-1H-tetrazol-5-ylthiomethyl]-7ß-[(2R,S)-2-(2-aminoäthansulfonylamino)-2-(2-aminothiazol-4-yl)-acetamido]-3-cephem-4-carbonsäure]", "values": [
      {"measurement": "ED50 Escherichia coli 205", "setting": "Escherichia coli 205; p.o.", "result": 8, "unit": "mg/kg"},
      {"measurement": "ED50 Escherichia coli 205", "setting": "Escherichia coli 205; s.c.", "result": "0,8 mg/kg"},
      {"measurement": "ED50 Staphylococcus aureus 10 B", "setting": "[1]", "result": ">30", "unit": "mg/kg"}
    ]},
    {"smiles": "C=CC(=O)NCCS(=O)(=O)N[C@H](C(=O)N[C@@H]1C(=O)N2C(C(=O)O)=C(COC(N)=O)CS[C@H]12)c1csc(N)n1", "note": "[Testverbindung 42]", "values": [
      {"measurement": "ED50", "setting": "Escherichia coli 205; [2]", "result": 2.5, "unit": "mg/kg"},
      {"measurement": "ED50", "setting": "Escherichia coli 205; [3]", "result": 0.1, "unit": "mg/kg"},
      {"measurement": "ED50", "setting": "[1]; sc", "result": 15, "unit": "mg/kg"}
    ]},
    {"smiles": "CS(=O)(=O)NCCS(=O)(=O)NC(C(=O)N[C@@H]1C(=O)N2C(C(=O)O)=C(COC(N)=O)CS[C@H]12)c1csc(N)n1", "note": "(stereo partly drawn) [Testverbindung 45]", "values": [
      {"measurement": "ED50", "setting": "[1]; po", "result": 90, "unit": "mg/kg"},
      {"measurement": "ED50", "setting": "[1]; sc", "result": 55, "unit": "mg/kg"}
    ]},
    {"smiles": "NC(=O)OCC1=C(C(=O)O)N2C(=O)C(NC(=O)C(NS(=O)(=O)CCNS(=O)(=O)c3ccc(N)cc3)c3csc(N)n3)C2SC1", "note": "(stereo not drawn) [Testverbindung 46]", "values": [
      {"measurement": "ED50", "setting": "Escherichia coli 205; [3]", "result": "< 1", "unit": "mg/kg"},
      {"measurement": "ED50", "setting": "[1]; sc", "result": 9, "unit": "mg/kg"}
    ]},
    {"smiles": "CS(=O)(=O)NC(C(=O)N[C@@H]1C(=O)N2C(C(=O)[O-])=C(C[n+]3ccc(C(N)=O)cc3)CS[C@H]12)c1csc(N)n1", "note": "(stereo partly drawn) [Testverbindung 9, 3-(4-Carbamoylpyridiniomethyl)-7ß-[(2R,S)-2-(2-aminothiazol-4-yl)-2-methansulfonylaminoacetamido]-3-cephem-4-carbonsäure]", "values": [
      {"measurement": "ED50 Escherichia coli 205", "setting": "Escherichia coli 205; s.c.", "result": 25, "unit": "mg/kg"},
      {"measurement": "ED50 Staphylococcus aureus 10 B", "setting": "[1]", "result": 55, "unit": "mg/kg"}
    ]},
    {"smiles": "CC(=O)OCC1=C(C(=O)O)N2C(=O)[C@@H](NC(=O)C(NS(=O)(=O)CCNS(=O)(=O)c3ccc(N)cc3)c3csc(N)n3)[C@H]2SC1", "note": "(stereo partly drawn) [Testverbindung 47]", "values": [
      {"measurement": "ED50", "setting": "Escherichia coli 205; [2]", "result": "> 30", "unit": "mg/kg"},
      {"measurement": "ED50", "setting": "Escherichia coli 205; [3]", "result": 2.8, "unit": "mg/kg"},
      {"measurement": "ED50", "setting": "[1]; po", "result": 100, "unit": "mg/kg"},
      {"measurement": "ED50", "setting": "[1]; sc", "result": 5, "unit": "mg/kg"}
    ]},
    {"smiles": "NCCS(=O)(=O)NC(C(=O)N[C@@H]1C(=O)N2C(C(=O)[O-])=C(CSc3nnnn3CC(=O)O)CS[C@H]12)c1csc(N)n1.[Na+]", "note": "(stereo partly drawn) [Testverbindung 5, 3-(1-Carboxymethyl-1H-tetrazol-5-ylthiomethyl)-7ß-[(2R,S)-2-(2-aminoäthansulfonylamino)-2-(2-aminothiazol-4-yl)-acetamido]-3-cephem-4-carbonsäure-natriumsalz]", "values": [
      {"measurement": "ED50 Escherichia coli 205", "setting": "Escherichia coli 205; p.o.", "result": 2, "unit": "mg/kg"},
      {"measurement": "ED50 Escherichia coli 205", "setting": "Escherichia coli 205; s.c.", "result": "0,45 mg/kg"},
      {"measurement": "ED50 Staphylococcus aureus 10 B", "setting": "[1]", "result": 78, "unit": "mg/kg"}
    ]},
    {"smiles": "CC(=O)NCCS(=O)(=O)NC(C(=O)N[C@@H]1C(=O)N2C(C(=O)O)=C(CSc3nnnn3C)CS[C@H]12)c1csc(N)n1", "note": "(stereo partly drawn) [Testverbindung 43]", "values": [
      {"measurement": "ED50", "setting": "Escherichia coli 205; [2]", "result": 8, "unit": "mg/kg"},
      {"measurement": "ED50", "setting": "Escherichia coli 205; [3]", "result": 1, "unit": "mg/kg"},
      {"measurement": "ED50", "setting": "[1]; sc", "result": 50, "unit": "mg/kg"}
    ]},
    {"smiles": "CC(=O)OCC1=C(C(=O)O)N2C(=O)[C@@H](NC(=O)C(NS(=O)(=O)CCNC=O)c3csc(N)n3)[C@H]2SC1", "note": "(stereo partly drawn) [Testverbindung 39]", "values": [
      {"measurement": "ED50", "setting": "Escherichia coli 205; [2]", "result": 5.5, "unit": "mg/kg"},
      {"measurement": "ED50", "setting": "Escherichia coli 205; [3]", "result": 0.8, "unit": "mg/kg"},
      {"measurement": "ED50", "setting": "[1]; sc", "result": 10, "unit": "mg/kg"}
    ]}
  ]
}
